Test system: influenza virus strain A/Kaw/86

`COC(=O)[C@@]1(C)CCC[C@]2(C)c3cc(OC)ccc3C(=O)C[C@@H]12` [COMPOUND A] was tested, and the “plaque morphology of mutant A2” value was “altered plaque morphology”.

— patent US6037348A (priority 1997, dated 2000)
